Assays:
[1] = clinical phase I trial, docetaxel plasma pharmacokinetics; format: in vivo, human; details: 20 mg docetaxel liquid formulation; 100 mg ritonavir at t=0 plus 100 mg 4 hours after docetaxel; patient 306
Protocol: 10 patients participated in an ongoing clinical phase I trial.
These patients were given medication which consisted of a liquid formulation of docetaxel or a solid composition comprising a solid dispersion of docetaxel, PVP-K30 and SDS (referred to hereinafter as MODRA).
Docetaxel dose: 30 mg for all patients (with the exception of patient 306 who received 20 mg docetaxel). The 30 mg dose was prepared as follows: 3.0 mL Taxotere® premix for intravenous administration (containing 10 mg docetaxel per ml in polysorbate 80 (25% v/v), ethanol (10% (w/w), and water) was mixed with water to a final volume of 25 mL. This solution was orally ingested by the patient with 100 mL tap water.
Docetaxel dose: 30 mg; 2 capsules with 15 mg docetaxel per capsule were ingested. Formulation E from the previous example (1/11 docetaxel, 9/11 PVP-K30 and 1/11 SDS) was selected for further testing in the clinical trial. A new batch of formulation E was produced by dissolving 1200 mg docetaxel anhydrate in 120 mL of t-butanol, and 10800 mg PVP-K30 and 1200 mg SDS (see table 13) in 80 mL of Water for Injection. The docetaxel/t-butanol solution was added to the PVP-K30/SDS/WfI solution under constant stirring. […]
The bioavailability of the MODRA capsules was calculated by: […]

[2] = docetaxel powder dissolution test, 25 mL water in beaker; format: physicochemical; details: for maximum docetaxel concentration reached / maximum docetaxel in solution, % of total docetaxel present: ±6 mg docetaxel
Protocol: An amount of powder, equal to approximately 6 mg Docetaxel, was placed in a 50 mL beaker. A magnetic stirring bar and 25 mL water were added to the beaker. The solution was stirred at 720 rpm, and kept at approximately 37° C. Samples were collected at various timepoints, and filtrated using a 0.45 μm filter before they were diluted with a 1:4 v/v mixture of methanol and acetonitrile. The filtrated and diluted samples were subsequently analyzed by HPLC-UV (see table 15).

| fold increase of docetaxel AUC by second boosting dose of ritonavir [1] [fold] | time at which equilibrium concentration is reached [2] [min] | time of stirring to maximum concentration ([2]; 25 mL WfI, 37° C., 720 rpm) [min] | equilibrium docetaxel in solution, % of total docetaxel present ([2]; after precipitation) [%] | equilibrium docetaxel concentration ([2]; after precipitation, 25 mL WfI, 37° C., 720 rpm) | maximum docetaxel concentration reached ([2]; 25 mL WfI, 37° C., 720 rpm) | maximum docetaxel in solution, % of total docetaxel present ([2]; 25 mL WfI, 37° C., 720 rpm) [%] | solubility from 10 to 60 minutes ([2]; 10 to 60 minutes) | SMILES |
| --- | --- | --- | --- | --- | --- | --- | --- | --- |
| 1.5 | – | – | – | – | – | – | – | CC(=O)O[C@@]12CO[C@@H]1C[C@H](O)[C@@]1(C)C(=O)[C@H](O)C3=C(C)[C@@H](OC(=O)[C@H](O)[C@@H](NC(=O)OC(C)(C)C)c4ccccc4)C[C@@](O)([C@@H](OC(=O)c4ccccc4)[C@H]21)C3(C)C [docetaxel] |
| – | 15 | 5 | ~2 | approximately 6 μg/mL | approximately 12 μg/mL | ~4.7 | – | CC(=O)O[C@@]12CO[C@@H]1C[C@H](O)[C@@]1(C)C(=O)[C@H](O)C3=C(C)[C@@H](OC(=O)[C@H](O)[C@@H](NC(=O)OC(C)(C)C)c4ccccc4)C[C@@](O)([C@@H](OC(=O)c4ccccc4)[C@H]21)C3(C)C [Formulation A, Anhydrous Docetaxel] |
| – | – | 0.5 | – | – | 32 µg/mL | 13 | comparable to formulation A | CC(=O)O[C@@]12CO[C@@H]1C[C@H](O)[C@@]1(C)C(=O)[C@H](O)C3=C(C)[C@@H](OC(=O)[C@H](O)[C@@H](NC(=O)OC(C)(C)C)c4ccccc4)C[C@@](O)([C@@H](OC(=O)c4ccccc4)[C@H]21)C3(C)C [Formulation B, Amorphous Docetaxel] |

— patent publication US20110207804A1, “COMPOSITIONS FOR THE TREATMENT OF NEOPLASTIC DISEASES” (Slotervaart Participaties BV, priority 2008, published 2011)
